Assay results from US20220313728A1 (priority 2021, published 2022).

How the values were obtained:
[1] = tested on: adult and geriatric patients, milder depression; conditions: 6 weeks; pooled data of 37 trials of fluoxetine and venlafaxine; cited from earlier work
[2] = tested on: adult and geriatric patients, milder depression; assay: Gibbons et al. 2012 synthesis of 37 placebo controlled double-blind randomized trials, HDRS-17 outcome; format: in vivo, human; conditions: 6 weeks; converted from HDRS-17 with the 24% increased range of the 21 item scale; pooled fluoxetine and venlafaxine

CNCCC(Oc1ccc(C(F)(F)F)cc1)c1ccccc1 (stereo not shown) [fluoxetine]
Estimated separation between active treatment and placebo control (HDRS-17) [1]: −2.55 HDRS-17 units
Equivalent difference on the HDRS-21 [2]: −3.16 unit

COc1ccc(C(CN(C)C)C2(O)CCCCC2)cc1 (stereo not shown) [venlafaxine]
Estimated separation between active treatment and placebo control (HDRS-17) [1]: −2.55 HDRS-17 units
Equivalent difference on the HDRS-21 [2]: −3.16 unit
